In patent US11578060B2, “JAK3 selective inhibitor” (PEKING UNIVERSITY SHENZHEN GRADUATE SCHOOL, priority 2018, dated 2023):

Key:
[1] = test system: IL-6 release; experiment: LPS-induced IL-6 release assay in PBMCs (ELISA); assay type: cell-based, human; details: LPS-challenged PBMCs, 24 h
Method: (§1) The LPS-induced IL-6 and TNF-α release assay was carried out as follows: frozen PBMCs (from Allcells) were thawed in RPMI1640 (Thermo Fisher) containing 10% FBS and recovered overnight at 37° C. The next day, cells were diluted to 1×10^6 cells/mL and seeded (500 μL) in 6-well plates. Compounds or DMSO (5 μL, serially diluted in DMSO) were added to the plates and incubated with cells for 2 h at 37° C., followed by stimulation with LPS (5 μL, 1 μg/mL) and incubation for 24 h at 37° C. in 5% CO2. Supernatants were collected for determination of IL-6 and TNF-α levels using human IL-6 or human THF-α DuoSet ELISA Kits (R&D Systems) according to the manufacturer's instructions.

[2] = molecular target: PKCγ (Homo sapiens, UniProt P05129); experiment: Selectivity assay against a panel of kinases: PKCγ; assay type: biochemical; details: tested at 1 μM
[3] = test system: STAT3 phosphorylation (IL-6 signal pathway); experiment: Cellular selectivity assay: IL-6-stimulated STAT3 phosphorylation in PBMCs; assay type: cell-based, human; details: IL-6, doses as high as 10 μM
[4] = test system: IL-15-induced STAT5 phosphorylation; experiment: IL-15-induced STAT5 phosphorylation in PBMC (Western blot); assay type: cell-based, human
[5] = molecular target: GSK3β (Homo sapiens, UniProt P49841); experiment: Selectivity assay against a panel of kinases: GSK3β; assay type: biochemical; details: tested at 1 μM
GSK3β, sequence (P49841 whole entry, species assumed): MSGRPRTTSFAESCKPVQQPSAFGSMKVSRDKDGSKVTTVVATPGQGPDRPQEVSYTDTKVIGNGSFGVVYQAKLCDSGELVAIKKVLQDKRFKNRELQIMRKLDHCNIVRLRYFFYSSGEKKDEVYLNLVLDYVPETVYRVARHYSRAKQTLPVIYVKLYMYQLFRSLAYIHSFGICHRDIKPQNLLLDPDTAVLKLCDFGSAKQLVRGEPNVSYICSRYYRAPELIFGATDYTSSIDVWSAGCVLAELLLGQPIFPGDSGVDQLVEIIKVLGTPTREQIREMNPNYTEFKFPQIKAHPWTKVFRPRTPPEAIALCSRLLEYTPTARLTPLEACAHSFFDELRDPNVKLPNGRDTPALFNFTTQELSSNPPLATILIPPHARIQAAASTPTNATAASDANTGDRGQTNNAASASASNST

[6] = test system: MCP-1 release; experiment: IL-6 stimulated MCP-1 release assay; assay type: cell-based, human
Method: as §1
IL-6 stimulated inflammatory cytokine MCP-1 release assay was performed in a similar way.

[7] = test system: STAT1 phosphorylation (IFN-α signal pathway); experiment: Cellular selectivity assay: IFN-α-stimulated STAT1 phosphorylation in PBMCs; assay type: cell-based, human; details: doses as high as 10 μM
[8] = test system: STAT5 phosphorylation; experiment: Cell washout experiment, IL-15-stimulated CTLL-2 cells; assay type: cell-based, Mouse; details: CTLL-2, 2 h treatment, washed three times, IL-15 30 min
Method: The washout procedures are as follows: CTLL-2 cells were treated with compounds for 2 hours. Then, for washout groups, cells were washed three times with PBS. The non-washout groups were kept constant. Cells were then stimulated with IL-15 for 30 min, lysed, and subjected to standard Western blot. Cells, treated with compounds, were extensively washed with PBS.

[9] = test system: panel of kinases; details: tested at 1 μM
[10] = test system: IL-2-induced STAT5 phosphorylation; experiment: IL-2-induced STAT5 phosphorylation in PBMC (Western blot)
[11] = test system: TNF-α release; experiment: LPS-induced TNF-α release assay in PBMCs (ELISA); assay type: cell-based, human; details: LPS-challenged PBMCs, 24 h
Method: as §1

[12] = molecular target: PKCα (Homo sapiens, UniProt P17252); experiment: Selectivity assay against a panel of kinases: PKCα; assay type: biochemical; details: tested at 1 μM
[13] = test system: phosphorylation of downstream substrates of JAKs; details: PBMCs; IL-15, IL-6, IFN-α

Compound	effect on LPS-induced release of IL-6 [1]	inhibition at 1 µM [2] [%]	inhibition of STAT3 phosphorylation [3]	inhibitory activity against IL-15-induced STAT5 phosphorylation compared with NIBR3049 ([4]; PBMC)	concentration that effectively abrogated phosphorylation of STAT5 ([4]; PBMCs, IL-15 stimulation) [nM]	inhibition at 1 µM [5] [%]	effect on IL-6-induced MCP-1 release [6]	inhibition of STAT1 phosphorylation [7]	inhibition of STAT5 phosphorylation after washing out with PBS [8]	inhibition of most kinases of the panel [9]	inhibitory activity against IL-2-induced STAT5 phosphorylation compared with NIBR3049 [10]	effect on LPS-induced release of TNF-α [11]	inhibition at 1 µM [12] [%]	cellular selectivity among JAKs (three cytokines) [13]
C=CC(=O)N1CCN(c2ccc([N+](=O)[O-])c(C3=C(c4c[nH]c5ccccc45)C(=O)NC3=O)c2)CC1 [Compound 32, 3-(5-(4-acryloylpiperazin-1-yl)-2-(nitro)phenyl)-4-(1H-indol-3-yl)-1H-pyrrole-2,5-dione]	significantly inhibited	> 50	only partial inhibition	higher inhibitory activity	300	> 50	did not inhibit	only partial inhibition	sustained inhibition of STAT5 phosphorylation	no more than 50%	higher inhibitory activity	significantly inhibited	> 50	–
CC(C)(O)C(=O)N1CCN(c2ccc(C(F)(F)F)c(C3=C(c4c[nH]c5ccccc45)C(=O)NC3=O)c2)CC1 [NIBR3049, reference compound]	–	–	–	–	–	–	–	–	almost lost after washing out	–	–	–	–	–
Tofacitinib [reference compound]	increased cytokine production in different degrees	–	–	–	–	–	did not inhibit	–	almost lost after washing out	–	–	increased cytokine production in different degrees	–	did not show obvious selectivity
